Results as given in patent US10550143B2, “C,O-spiro aryl glycoside compounds, preparation therefor and use thereof” (SHANGHAI INSTITUTE OF MATERIA MEDICA, CHINESE ACADEMY OF …, priority 2015, dated 2020).

Tests used:
[1] = target: T1, human sodium-glucose cotransporter 2 (SGLT2) (Homo sapiens, UniProt P31639); test: In vitro SGLT2 inhibition, methyl-α-D-[U-14C]glucopyranoside uptake in NIH3T3-hSGLT2 cells; format: cell-based; conditions: for Selectivity: IC50 SGLT1/IC50 SGLT2; for inhibition at 0.01 µM: SGLT2, 10 nM, read-out: % Inhibition rate ± SD 10 nM; for inhibition at 0.1 µM: SGLT2, 100 nM, read-out: % Inhibition rate ± SD 100 nM; for IC50: read-out: IC50 ± SD SGLT2
T1 construct: expressed in transfected cells; host or cells: NIH3T3 (mouse fibroblast) cells expressing hSGLT2
T1 sequence (P31639 1-672): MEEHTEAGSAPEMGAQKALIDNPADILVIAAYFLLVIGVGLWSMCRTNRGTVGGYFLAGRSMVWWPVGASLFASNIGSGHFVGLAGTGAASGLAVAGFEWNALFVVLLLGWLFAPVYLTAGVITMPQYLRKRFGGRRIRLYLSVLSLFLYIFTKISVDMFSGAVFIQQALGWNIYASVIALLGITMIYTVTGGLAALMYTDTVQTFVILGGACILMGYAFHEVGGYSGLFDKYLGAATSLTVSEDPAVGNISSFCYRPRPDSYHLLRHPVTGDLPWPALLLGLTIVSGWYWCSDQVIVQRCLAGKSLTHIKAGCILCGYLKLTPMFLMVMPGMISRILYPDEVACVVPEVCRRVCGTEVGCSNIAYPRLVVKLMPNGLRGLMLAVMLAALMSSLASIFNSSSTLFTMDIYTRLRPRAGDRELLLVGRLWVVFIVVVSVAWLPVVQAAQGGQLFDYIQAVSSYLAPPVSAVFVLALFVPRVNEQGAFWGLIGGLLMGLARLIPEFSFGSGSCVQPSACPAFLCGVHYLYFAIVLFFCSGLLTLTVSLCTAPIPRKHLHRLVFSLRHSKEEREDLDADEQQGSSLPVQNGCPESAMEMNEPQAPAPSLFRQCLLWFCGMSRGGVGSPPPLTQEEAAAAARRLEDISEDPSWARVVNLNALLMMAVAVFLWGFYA
Procedure: Inhibition of the compounds of formula I against human sodium-glucose cotransporter 2 (SGLT2) was determined experimentally and the experimental procedures were carried out as reference^1.
Methyl-α-D-[U-^14C] glucopyranoside (Perkin Elmer) Dimethylsulfoxide (Genebase, Prod No: 0231)
(1) Primary screening of hSGLT2 are conducted with two concentrations, 100 nM and 10 nM;
SGLT2 transports D-glucose at 1:1 sodium-glucose ratio, glucose is replaced by the non-metabolic and isotope labeled methyl-aD-[U-^14C] glucopyranoside and methyl-aD-glucopyranoside, and the amount of isotope transferred into the cells was determined.
1) 0.2% gelatin in a 96-well plate was put in a 37° C. incubator for further use;
2) NIH3T3-hSGLT2 cells were injected into 96-well plates, 40000/well, and 100 μL culture medium per well:
3) the fluid was changed in the next day, and sodium butyrate was added into medium at a final concentration of 2 mM;
4) wash the cells with 100 μL of KRH—Na^+ for 3 times and incubate cells with 50 μL for 30 minutes. Cells were changed to 50 μL of compound in KRH—Na^+, uptake buffer (KRH—Na^+ and methyl-α-D-[U-^14C]glucopyranoside and ⅙ mM methyl-α-D-glucopyranoside at 10 μL per well) was added; KRH-acetylcholine solution was used as background control instead of KRH-Na^+
5) washed with 100 μL PBS for 3 times, dried, 50 μL lysate and 150 μL scintillation fluid were added, the membrane was covered and flattened, shaken on a shaker to mix thoroughly, centrifuged at 1500 rpm at 4° C. for 3 min, taken out and read;
6) the results were analyses.
The inhibition rate (% Inhibiton) of each sample at each concentration was calculated by dividing the value of the compound well value minus the background value by the value of the DMSO control well value minus the background value.
IC50 is calculated as follows: […]
The y value is the activity or inhibition percent, the x value is the concentration of the corresponding compound, top (the maximum y value of the curve), bottom (the minimum y value of the curve).

hSGLT1 = target: T2, hSGLT1 (Homo sapiens, UniProt P13866); test: In vitro SGLT1 inhibition (hSGLT1 IC50 test); format: cell-based; conditions: read-out: IC50 ± SD SGLT1
T2 sequence (P13866 1-664): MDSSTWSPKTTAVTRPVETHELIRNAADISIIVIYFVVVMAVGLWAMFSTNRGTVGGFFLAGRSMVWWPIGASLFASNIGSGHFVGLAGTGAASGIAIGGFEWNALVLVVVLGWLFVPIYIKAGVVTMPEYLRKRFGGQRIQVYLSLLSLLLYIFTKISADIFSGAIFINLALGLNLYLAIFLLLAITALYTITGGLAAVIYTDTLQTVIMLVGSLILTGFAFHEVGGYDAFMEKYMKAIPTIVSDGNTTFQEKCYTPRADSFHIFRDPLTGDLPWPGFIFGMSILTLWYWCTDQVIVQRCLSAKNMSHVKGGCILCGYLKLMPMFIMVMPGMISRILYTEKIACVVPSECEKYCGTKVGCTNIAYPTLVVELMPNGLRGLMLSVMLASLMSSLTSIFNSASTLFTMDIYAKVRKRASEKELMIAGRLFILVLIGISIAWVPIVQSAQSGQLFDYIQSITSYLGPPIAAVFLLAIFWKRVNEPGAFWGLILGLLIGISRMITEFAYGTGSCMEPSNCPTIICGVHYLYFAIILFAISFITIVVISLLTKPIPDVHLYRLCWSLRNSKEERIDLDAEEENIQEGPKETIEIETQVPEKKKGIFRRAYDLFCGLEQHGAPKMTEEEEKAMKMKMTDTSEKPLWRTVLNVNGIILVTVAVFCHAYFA

SD rats = test: Acute single administration, urinary glucose changes in SD rats; format: in vivo, rat; design: Urine glucose concentration / The total amount of glucose excreted: unit not given here; conditions: 1 mg/kg oral, after 24 h
Procedure: (1) Acutely Administering Compound to Observed the Urinary Glucose Changes in SD Rats
Thirty-eight male normal SD rats were selected and randomly divided into 5 groups according to body weight and blood glucose, 6-8 in each group. […] After oral gavage, the rats were placed in rats metabolic cages, and urine was collected after 24 h, and the urine volume was recorded, the urine sugar concentration was determined, and urinary sugar content was calculated according to the following formula. Urine content=urinary sugar concentration×urine volume
Glucose levels in urine are measured by the glucose assay kit.
Data were expressed as mean±standard deviation (x±s), and Student's t test was used for statistical analysis of the data, p<0.05 was considered statistically significant.

Selectivity [1] | inhibition at 0.01 µM [1] [%] | inhibition at 0.1 µM [1] [%] | IC50 [1] [nM] | IC50 (hSGLT1) [nM] | Compound | The total amount of glucose excreted (SD rats; Table 3) | Urine glucose concentration (SD rats; Table 3) | Urine volume (SD rats; Table 3, in mL) | The total amount of glucose excreted (SD rats; Table 4) | Urine glucose concentration (SD rats; Table 4) | Urine volume (SD rats; Table 4, in mL)
13 | 25 ± 3.1 | 79.8 ± 8.5 | 29.7 ± 18.4 | 410 ± 50 | CCc1ccc(Cc2cc3c(cc2Cl)CO[C@]32O[C@H](C)[C@@H](O)[C@H](O)[C@H]2O)cc1 [Example A22, (1S,3′R,4′S,5′S,6′R)-6′-methyl-6-(4-ethylbenzyl)-5-chloro-3′,4′,5′,6′-tetrahydro-3H-spiro[isobenzofuran-1,2′-pyran]-3′,4′,5′-triol] | – | – | – | – | – | –
58 | 51.5 ± 10.7 | 90.5 ± 4.1 | 15.7 ± 2.1 | 920 ± 90 | CCOc1ccc(Cc2cc3c(cc2Cl)CO[C@]32O[C@H](C)[C@@H](O)[C@H](O)[C@H]2O)cc1 [Example A26, (1S,3′R,4′S,5′S,6′R)-6′-methyl-6-(4-ethoxybenzyl)-5-chloro-3′,4′,5′,6′-tetrahydro-3H-spiro[isobenzofuran-1,2′-pyran]-3′,4′,5′-triol] | – | – | – | – | – | –
19483 | 67.5 ± 5.7 | 91.5 ± 11.7 | 3.6 ± 0.7 | 70100 ± 7900 | C[C@H]1O[C@]2(OCc3cc(Cl)c(Cc4ccc(-c5ccc(F)cc5)s4)cc32)[C@H](O)[C@@H](O)[C@@H]1O [Example A31] | 9.41 ± 6.18 | 1.50 ± 0.60 | 33.13 ± 9.99 | – | – | –
81 | 22.4 ± 7.5 | 95.7 ± 2 | 24 ± 2.4 | 1950 ± 130 | C[C@H]1O[C@]2(OCc3cc(Cl)c(Cc4cc5ccccc5s4)cc32)[C@H](O)[C@@H](O)[C@@H]1O [Example A35, (1S,3′R,4′S,5′S,6′R)-6′-methyl-6-(benzo[b]thiophene-2-methyl)-5-chloro-3′,4′,5′,6′-tetrahydro-3H-spiro[isobenzofuran-1,2′-pyran]-3′,4′,5′-triol] | – | – | – | – | – | –
166 | 24.4 ± 8.8 | 103 ± 3.7 | 32.4 ± 8.2 | 5400 ± 660 | C[C@H]1O[C@]2(OCc3cc(Cl)c(Cc4cc5ccccc5o4)cc32)[C@H](O)[C@@H](O)[C@@H]1O [Example A36, (1S,3′R,4′S,5′S,6′R)-6′-methyl-6-(benzo[b]furan-2-methyl)-5-chloro-3′,4′,5′,6′-tetrahydro-3H-spiro[isobenzofuran-1,2′-pyran]-3′,4′,5′-triol] | – | – | – | – | – | –
– | 31.1 ± 7.4 | 95.4 ± 2.8 | 8.4 ± 0.7 | 1930 ± 160 | CCc1ccc(Cc2cc3c(cc2C)CO[C@]32O[C@H](C)[C@@H](O)[C@H](O)[C@H]2O)s1 [Example A57, (1S,3′R,4′S,5′S,6′R)-5,6′-dimethyl-6-((5-ethylthienzyl)-2-methyl)-3′,4′,5′,6′-tetrahydro-3H-spiro[isobenzofuran-1,2′-pyran]-3′,4′,5′-triol] | – | – | – | 786.39 ± 96.43 | 232.39 ± 50.5 | 19.17 ± 2.71
83 | 18.3 ± 2.2 | 71.4 ± 2.8 | 43.5 ± 11.3 | 3600 ± 260 | COCCc1ccc(Cc2cc3c(cc2Cl)CO[C@]32O[C@H](C)[C@@H](O)[C@H](O)[C@H]2O)s1 [Example A114, (1S,3′R,4′S,5′S,6′R)-5-chloro-6-((5-(2-methoxyethyl)thiophene-2-yl)methyl)-6′-methyl-3-3′,4′,5′,6′-tetrahydro-3H-spiro[isobenzofuran-1,2′-pyran]-3′,4′,5′-triol] | – | – | – | – | – | –
166 | 22.1 ± 3 | 91.8 ± 3.5 | 43.4 ± 12.9 | 7200 ± 600 | CC(O)c1ccc(Cc2cc3c(cc2Cl)CO[C@]32O[C@H](C)[C@@H](O)[C@H](O)[C@H]2O)s1 (stereo partly drawn) [Example A118, (1S,3′R,4′S,5′S,6′R)-5-chloro-6-((5-(1-hydroxyethyl)thiophene-2-yl)methyl)-6′-methyl-3′,4′,5′,6′-tetrahydro-3H-spiro[isobenzofuran-1,2′-pyran]-3′,4′,5′-triol] | – | – | – | – | – | –
167 | 22 ± 3.1 | 80 ± 2.7 | 3.6 ± 0.8 | 600 ± 80 | C[C@H]1O[C@]2(OCc3cc(Cl)c(Cc4ccc(CCO)s4)cc32)[C@H](O)[C@@H](O)[C@@H]1O [Example A119, (1S,3′R,4′S,5′S,6′R)-5-chloro-6-((5-(2-hydroxyethyl)thiophene-2-yl)methyl)-6′-methyl-3′,4′,5′,6′-tetrahydro-3H-spiro[isobenzofuran-1,2′-pyran]-3′,4′,5′-triol] | – | – | – | – | – | –

Compound | Selectivity [1] | inhibition at 0.01 µM [1] [%] | inhibition at 0.1 µM [1] [%] | IC50 [1] [nM] | IC50 (hSGLT1) [nM] | The total amount of glucose excreted (SD rats; Table 3) | Urine glucose concentration (SD rats; Table 3) | Urine volume (SD rats; Table 3, in mL) | The total amount of glucose excreted (SD rats; Table 4) | Urine glucose concentration (SD rats; Table 4) | Urine volume (SD rats; Table 4, in mL)
CCc1ccc(Cc2ccc3c(c2)[C@]2(OC3)O[C@H](C)[C@@H](O)[C@H](O)[C@H]2O)cc1 [Example A2, (1S,3′R,4′S,5′S,6′R)-6′-methyl-6-(4-ethylbenzyl)-3′,4′,5′,6′-tetrahydro-3H-spiro[isobenzofuran-1,2′-pyran]-3′,4′,5′-triol] | 351 | 51.4 ± 2.1 | 62.6 ± 2 | 63.5 ± 7.1 | 22300 ± 4260 | – | – | – | – | – | –
CCc1ccc(Cc2cc3c(cc2F)CO[C@]32O[C@H](C)[C@@H](O)[C@H](O)[C@H]2O)s1 [Example A42, (1S,3′R,4′S,5′S,6′R)-6′-methyl-6-((5-ethylthienyl)-2-methyl)-5-fluoro-3′,4′,5′,6′-tetrahydro-3H-spiro[isobenzofuran-1,2′-pyran]-3′,4′,5′-triol] | 988 | 62.4 ± 11.8 | 104 ± 2.8 | 26.7 ± 2 | 25900 ± 4290 | – | – | – | 2.56 ± 2.37 | 0.82 ± 0.73 | 18.5 ± 3.51
